According to the supplement of paper PMC10627819:

What was measured:
[1] = system: S. pneumoniae D39V; test: Bliss interaction score (quartile over a dose matrix) (fitness difference); higher = more antagonism (negative = synergy)
Summary of the method: (§1)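 Each OD595 reading at entry into stationary phase was scaled to the robust mean of the untreated wells on its plate, with a ceiling of 1. These ratios define fitness, and single-drug fitness was inferred from combinations. The Bliss score compares observed fitness with the product-based expectation and is reported as quartiles across all replicate types, technical, biological and donor/recipient.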

[2] = system: S. aureus Newman; test: as above
Summary of the method: as §1

[3] = system: S. aureus DSM 20231; test: as above
Summary of the method: as §1

[4] = system: B. subtilis 168; test: as above
Summary of the method: as §1

[5] = system: S. pneumoniae D39V; test: fitness (endpoint OD595 vs no drug) (fraction); higher = more growth
Summary of the method: (§2)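 Fitness compares growth at the stationary-phase transition with the robust mean of no-drug control wells, as a ratio of optical densities. The ratio is capped at 1. Wells of 384-well plates held 30 µl, or 55 µl for S. pneumoniae, inoculated at OD595 0.01. Readings at OD595 every 30 min for 14 h at 37 °C were corrected against the first reading.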

[6] = system: S. aureus Newman; test: as above
Summary of the method: as §2

[7] = system: S. aureus DSM 20231; test: as above
Summary of the method: as §2

[8] = system: B. subtilis 168; test: as above
Summary of the method: as §2
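Throughout, for Bliss interaction score (quartile over a dose matrix): first quartile when negative (synergy) and third quartile when positive (antagonism).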
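Throughout, for fitness (endpoint OD595 vs no drug): OD595 on entry to stationary phase over no-drug wells; at most 1.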

CCCCCCCCCC(=O)N[C@@H](Cc1c[nH]c2ccccc12)C(=O)N[C@H](CC(N)=O)C(=O)N[C@@H](CC(=O)O)C(=O)N[C@@H]1C(=O)NCC(=O)N[C@@H](CCCN)C(=O)N[C@@H](CC(=O)O)C(=O)N[C@H](C)C(=O)N[C@@H](CC(=O)O)C(=O)NCC(=O)N[C@H](CO)C(=O)N[C@@H]([C@H](C)CC(=O)O)C(=O)N[C@@H](CC(=O)c2ccccc2N)C(=O)O[C@@H]1C [Daptomycin] + CCN(CC)CCOC(=O)c1ccc(N)cc1 [Procaine]
Settings	Bliss interaction score
[1]	0.0859
[2]	0.0445
[3]	0.0381
[4]	-0.0699

fitness
Settings	first compound 0.125 µg/mL	first compound 0.25 µg/mL	first compound 0.5 µg/mL	first compound 1 µg/mL	first compound 2 µg/mL	first compound 4 µg/mL
[5], partner 85.5 µg/mL	–	–	–	0.994	0.961	0.945
[5], partner 171 µg/mL	–	–	–	0.98	0.97	0.951
[5], partner 342 µg/mL	–	–	–	0.942	0.906	0.893
[6], partner 85.5 µg/mL	≥ 1	≥ 1	≥ 1	–	–	–
[6], partner 171 µg/mL	0.984	≥ 1	≥ 1	–	–	–
[6], partner 342 µg/mL	0.989	0.98	≥ 1	–	–	–
[7], partner 85.5 µg/mL	0.912	0.913	0.931	0.956	0.774	–
[7], partner 171 µg/mL	≥ 1	≥ 1	≥ 1	0.873	0.822	–
[7], partner 342 µg/mL	0.995	0.989	≥ 1	0.953	0.808	–
[8], partner 85.5 µg/mL	0.873	0.946	0.864	–	–	–
[8], partner 171 µg/mL	0.9	0.898	0.799	–	–	–
[8], partner 342 µg/mL	0.874	0.836	0.854	–	–	–

[8], first compound 1 µg/mL, one replicate
Settings	fitness
partner 85.5 µg/mL	0.717
partner 171 µg/mL	0.685
partner 342 µg/mL	0.682

CCCCCCCCCC(=O)N[C@@H](Cc1c[nH]c2ccccc12)C(=O)N[C@H](CC(N)=O)C(=O)N[C@@H](CC(=O)O)C(=O)N[C@@H]1C(=O)NCC(=O)N[C@@H](CCCN)C(=O)N[C@@H](CC(=O)O)C(=O)N[C@H](C)C(=O)N[C@@H](CC(=O)O)C(=O)NCC(=O)N[C@H](CO)C(=O)N[C@@H]([C@H](C)CC(=O)O)C(=O)N[C@@H](CC(=O)c2ccccc2N)C(=O)O[C@@H]1C [Daptomycin] + CN1C2=CC=CC=C2N=C3C1=CC=CC3=O [Pyocyanin]
Settings	Bliss interaction score
[1]	-0.0802
[2]	0.0899
[3]	-0.0886
[4]	-0.0565

fitness
Settings	first compound 0.125 µg/mL	first compound 0.25 µg/mL	first compound 0.5 µg/mL	first compound 1 µg/mL	first compound 2 µg/mL	first compound 4 µg/mL
[5], partner 0.325 µg/mL	–	–	–	≥ 1	≥ 1	0.994
[5], partner 0.65 µg/mL	–	–	–	0.905	0.944	0.931
[5], partner 1.3 µg/mL	–	–	–	0.615	0.604	0.582
[6], partner 1.25 µg/mL	0.871	0.874	0.904	–	–	–
[6], partner 2.5 µg/mL	0.839	0.857	0.855	–	–	–
[7], partner 1.25 µg/mL	–	–	0.891	0.969	0.727	–
[7], partner 2.5 µg/mL	–	–	0.936	0.974	0.737	–
[7], partner 5 µg/mL	–	–	0.627	0.707	0.639	–
[8], partner 1.25 µg/mL	0.868	0.89	0.846	–	–	–
[8], partner 2.5 µg/mL	0.846	0.817	0.803	–	–	–
[8], partner 5 µg/mL	0.718	0.755	0.679	–	–	–

fitness, one replicate
Settings	partner 1.25 µg/mL	partner 2.5 µg/mL	partner 5 µg/mL
[7], first compound 0.125 µg/mL	0.798	0.814	0.577
[7], first compound 0.25 µg/mL	0.86	0.938	0.581
[8], first compound 1 µg/mL	0.697	0.652	0.552
